{
  "source": "patent US20260256827A1",
  "about": "“Methods for treating lower back pain with hyaluronic acid” (priority 2023, published 2026)",
  "assay_type_in_all_cases": "in vivo, human",
  "key": {"[1]": {"tested_on": "chronic low back pain", "experiment": "Example 4: Hyalgan injections, person, pain severity", "conditions": "before Hyalgan", "experimental": "(§1) In the Examples, unless otherwise specified, pain severity was assessed using a visual analog numerical rating scale ranging from 0 (no pain) to 10 (worst pain possible), and hyaluronic acid (HA) injections (Hyalgan™, 10 mg/mL, MW: 500,000 to 730,000 Daltons in 2 mL pre-filled syringes) were administered using a 30 gauge, ½″ needle.\nHyaluronic acid injections were administered in the form of Hyalgan ([…]) along the lateral margin of the left PSIS (two injections; 1 mL each). […] […] received subsequent injections on this visit: again two injections of 1 mL each along the lateral margins of […] left PSIS."}, "[2]": {"tested_on": "peripheral neuropathy foot pain", "experiment": "Example 2 patient: treatment of peripheral neuropathy / foot pain", "conditions": "75 mg bid from Nov. 9, 2023", "experimental": "Beginning on Oct. 2, 2023, the patient was treated for peripheral neuropathy lidocaine/prilocaine 2.5% cream applied to their feet bilaterally. […] 8, 2024."}, "[3]": {"tested_on": "chronic, bilateral lower back pain", "experiment": "Example 2: HA injections, patient, pain severity on visual analog numerical rating scale", "conditions": "75 mg bid from Nov. 9, 2023; recurrence reported Jan. 8, 2024", "experimental": "as §1\nOn Oct. 5, 2023, a patient reported chronic, bilateral lower back pain, and more recent onset of pain in their feet that slowly spread to their lower leg, but mostly resides on the plantar surface of their feet. The lower back pain severity was 7/10 (between severe and very severe) at rest, and up to 9/10 (between very severe and worse pain possible) after standing all day.\nOn Oct. […] The injection locations were determined by findings of focal tenderness of the palpated sites illustrated in FIG. 1.\nOn Oct. 12, 2023, patient reported maximum lower back pain severity of 5-6/10 (severe). […] These injection locations were again determined by findings of focal tenderness of palpated sites illustrated in FIG. 1.\nOn Jan. […] These injection locations were again determined by findings of focal tenderness of palpated sites illustrated in FIG. 1.\nOn Mar. […] These injection locations were again determined by findings of focal tenderness of palpated sites illustrated in FIG. 1."}, "[4]": {"tested_on": "chronic lower back pain with enthesopathy", "experiment": "Example 3: HA injections, patient, pain severity on visual analog numerical rating scale", "conditions": "tramadol and cyclobenzaprine together, before HA", "experimental": "as §1"}},
  "data": [
    {"smiles": "CC(C)Cc1ccc(C(C)C(=O)O)cc1", "note": "(stereo not drawn) [ibuprofen]", "values": [
      {"measurement": "benefit of prior treatment for low back pain", "setting": "[1]", "value": "without benefit"}
    ]},
    {"smiles": "CC(C)C[C@H](CN)CC(=O)O", "note": "[pregabalin]", "values": [
      {"measurement": "effect on foot pain", "setting": "[2]", "value": "helpful"},
      {"measurement": "effect on recurrence of lower back pain", "setting": "[3]", "value": "did not prevent the recurrence"}
    ]},
    {"smiles": "CN(C)CCC=C1c2ccccc2C=Cc2ccccc21", "note": "[cyclobenzaprine]", "values": [
      {"measurement": "benefit of ongoing treatment for lower back pain", "setting": "[4]", "value": "helped only marginally"},
      {"measurement": "benefit of prior treatment for low back pain", "setting": "[1]", "value": "without benefit"}
    ]},
    {"smiles": "COc1cccc(C2(O)CCCCC2CN(C)C)c1", "note": "(stereo not drawn) [tramadol]", "values": [
      {"measurement": "benefit of ongoing treatment for lower back pain", "setting": "[4]", "value": "helped only marginally"}
    ]}
  ]
}
